Measurements: BigSolDB 2.1

CCCCOc1ccc(C(=O)CCN2CCCCC2)cc1.Cl
solubility (mole fraction)
Details	278.15 K	283.15 K	288.15 K	293.15 K	298.15 K	303.15 K	308.15 K	313.15 K	318.15 K	323.15 K
in DMF	0.0201	0.0227	0.0256	0.0291	0.0328	0.0371	0.0421	0.0475	0.0539	0.0608
in THF	0.00088	0.00098	0.00108	0.00119	0.00133	0.00147	0.00162	0.0018	0.002	0.00221
in acetone	0.0121	0.0148	0.018	0.0218	0.0263	0.0321	0.0389	0.0474	0.0574	0.0695
in ethanol	0.062	0.07	0.0786	0.0882	0.0987	0.111	0.124	0.14	0.157	0.175
in ethyl acetate	0.00638	0.00791	0.00983	0.012	0.0146	0.0181	0.0223	0.0276	0.0338	0.0415
in methanol	0.0804	0.0905	0.103	0.116	0.131	0.147	0.166	0.188	0.212	0.238
in n-hexane	0.00084	0.00095	0.00108	0.00122	0.00137	0.00155	0.00175	0.00198	0.00224	0.00253
in water	0.0296	0.0339	0.039	0.045	0.0514	0.059	0.0674	0.0774	0.0888	0.102
